In US10450306B2, “Isoxazole analogs as FXR agonists and methods of use thereof” (Enanta Pharmaceuticals, Inc., priority 2016, dated 2019) one finds Emax and EC50 data, which are given here for 31 molecules.

The target in the assay is T1, human FXR (NR1H4) (Homo sapiens, UniProt Q96RI1).
T1 construct: host or cells: CHO (Chinese hamster ovary) reporter cells
T1 sequence (Q96RI1 1-486): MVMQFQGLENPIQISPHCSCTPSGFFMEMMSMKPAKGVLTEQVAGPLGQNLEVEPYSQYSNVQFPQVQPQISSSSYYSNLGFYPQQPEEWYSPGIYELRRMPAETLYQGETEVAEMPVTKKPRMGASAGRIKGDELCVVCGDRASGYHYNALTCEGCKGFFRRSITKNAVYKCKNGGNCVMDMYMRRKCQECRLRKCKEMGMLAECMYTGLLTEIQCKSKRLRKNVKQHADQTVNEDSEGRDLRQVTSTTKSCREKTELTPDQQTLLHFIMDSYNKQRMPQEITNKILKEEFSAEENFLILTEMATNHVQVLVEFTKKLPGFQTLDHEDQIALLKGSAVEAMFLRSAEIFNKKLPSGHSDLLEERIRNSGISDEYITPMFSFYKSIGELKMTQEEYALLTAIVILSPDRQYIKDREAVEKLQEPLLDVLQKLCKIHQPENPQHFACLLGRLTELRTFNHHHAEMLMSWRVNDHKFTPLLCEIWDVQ
Put plainly: Human FXR (NR1H4) Assay: Gal4 promoter driven luciferase reporter transactivation in CHO cells (Indigo Bioscience kit IB00601). On Efficacy (%): efficacy normalized to CDCA set as 100%. The note with it: for Emax: CHO, read-out: Efficacy (%); for EC50: Human FXR (NR1H4) reporter assay, potency ranges. The class given is cell-based. The source says:
Human FXR (NR1H4) Assay Determination of a ligand mediated Gal4 promoter driven transactivation to quantify ligand binding mediated activation of FXR. FXR Reporter Assay kit purchased from Indigo Bioscience (Catalogue number: IB00601) to determine the potency and efficacy of compound developed by Enanta that can induce FXR activation. The principle application of this reporter assay system is to quantify functional activity of human FXR. The assay utilizes non-human mammalian cells, CHO (Chinese hamster ovary) cells engineered to express human NR1H4 protein (referred to as FXR). Reporter cells also incorporate the cDNA encoding beetle luciferase which catalyzes the substrates and yields photon emission. Luminescence intensity of the reaction is quantified using a plate-reading luminometer, Envision. Reporter Cells include the luciferase reporter gene functionally linked to an FXR responsive promoter. Thus, quantifying changes in luciferase expression in the treated reporter cells provides a sensitive surrogate measure of the changes in FXR activity. […] The assay is according to the manufacturer's instructions. In brief, the assay was performed in white, 96 well plates using final volume of 100 ul containing cells with different doses of compounds. Retrieve Reporter Cells from −80° C. storage. Perform a rapid thaw of the frozen cells by transferring a 10 ml volume of 37° C. cell recovery medium into the tube of frozen cells. Recap the tube of Reporter Cells and immediately place it in a 37° C. water bath for 5-10 minutes. Retrieve the tube of Reporter Cell Suspension from the water bath. Sanitize the outside surface of the tube with a 70% alcohol swab, and then transfer it into the cell culture hood. Dispense 90 μl of cell suspension into each well of the 96-well Assay Plate. Transfer the plate into 37° C. incubator, allowing the cells adherent to the bottom of the well. Dilute compounds in Dilution Plate (DP), and administrate to cells at Assay Plate (AP). DMSO content of the samples was kept at 0.2%. Cells were incubated for additional 22 hours before luciferase activities were measured. Thirty minutes before intending to quantify FXR activity, remove Detection Substrate and Detection Buffer from the refrigerator and place them in a low-light area so that they may equilibrate to room temperature. Remove the plate's lid and discard all media contents by ejecting it into an appropriate waste container. Gently tap the inverted plate onto a clean absorbent paper towel to remove residual droplets. Cells will remain tightly adhered to well bottoms. Add 100 ul of luciferase detection reagent to each well of the assay plate. Allow the assay plate to rest at room temperature for at least 5 minutes following the addition of LDR. Set the instrument (Envision) to perform a single 5 second “plate shake” prior to reading the first assay well. Read time may be 0.5 second (500 mSec) per well.
On the technique in general: A reporter such as luciferase makes a cellular process visible.

For orientation: EC50 means the concentration at which the effect is half-maximal. Low values mean higher potency in that assay, high ones lower potency in that assay. With `CCOC(=O)c1ccc2nc(N3C4CCC3CC(NCc3c(-c5ccccc5C(F)(F)F)noc3C3CC3)C4)sc2c1` (centres unmarked) [Example 1412], the Emax came out at 75% and the EC50 was 100 to 1000 nM.
Regarding `COC(=O)c1ccc2nc(N3C4CCC3CC(N(C)Cc3c(-c5c(Cl)cccc5Cl)noc3C3CC3)C4)sc2c1` (centres unmarked) [Example 179], the Emax was determined as 148% and the EC50 lay in the range of 100 to 1000 nM.
Taken in the same sequence, the figures for `O=C(NS(=O)(=O)C1CC1)c1ccc2nc(N3C4CCC3CC(NCc3c(-c5ccccc5C(F)(F)F)noc3C3CC3)C4)sc2c1` (centres unmarked) [Example 1416] were 87.5% and 1 to 100 nM.
For the molecule `Cc1cc(C(=O)O)cc2sc(N3C4CCC3CC(NCc3c(-c5ccccc5C(F)(F)F)noc3C3CC3)C4)nc12` (centres unmarked) [Example 1405], the Emax was 125% and the EC50 was 1 to 100 nM.
As for `COC(=O)c1cc(F)c2nc(N3C4CCC3CC(NCc3c(-c5ccccc5C(F)(F)F)noc3C3CC3)C4)sc2c1` (centres unmarked) [Example 1407], the Emax came out at 92.5% and the EC50 lay in the range of 1 to 100 nM.
In the same order, the values of `CC(C)Oc1cc(C(=O)NS(=O)(=O)C2(C)CC2)cc2sc(N3C4CCC3CC(NCc3c(-c5c(Cl)cccc5Cl)noc3C3CC3)C4)nc12` (centres unmarked) [Example 400-18] are 98% and below 1 nM.
As to `CC(C)Oc1cc(C(=O)NS(=O)(=O)C2CC2)cc2sc(N3CCC(NCc4c(-c5c(Cl)cccc5Cl)noc4C4CC4)CC3)nc12` [Example 400-3], the Emax worked out at 104% and the EC50 lay in the range of 1 to 100 nM.
For the molecule `O=C(O)c1ccc2nc(N3[C@@H]4CC[C@H]3C[C@@H](NCc3c(-c5c(Cl)cccc5Cl)noc3C3CC3)C4)sc2c1` [Example 2, 2-((1R,3R,5S)-3-(((5-cyclopropyl-3-(2,6-dichlorophenyl)isoxazol-4-yl)methyl)amino)-8-azabicyclo[3.2.1]octan-8-yl)benzo[d]thiazole-6-carboxylic acid], the Emax amounted to 244% and the EC50 fell in the range of 1 to 100 nM.
`COc1cc(C(=O)NS(=O)(=O)C2(C)CC2)cc2sc(N3C4CCC3CC(NCc3c(-c5c(Cl)cccc5Cl)noc3C3CC3)C4)nc12` (centres unmarked) [Example 304]: the Emax amounted to 139% and the EC50 was below 1 nM.
Regarding `CC(C)Oc1cc(C(=O)O)cc2sc(N3CCC(NCc4c(-c5c(Cl)cccc5Cl)noc4C4CC4)CC3)nc12` [Example 200-4], the Emax was 106% and the EC50 was 1 to 100 nM.
Regarding `COC(=O)c1cc(C)c2nc(N3C4CCC3CC(NCc3c(-c5c(Cl)cccc5Cl)noc3C3CC3)C4)sc2c1` (centres unmarked) [Example 7], the Emax was found to be 37% and the EC50 is 1 to 100 nM.
On to `COC(=O)c1cc(OC)c2nc(N3C4CCC3CC(NCc3c(-c5c(Cl)cccc5Cl)noc3C3CC3)C4)sc2c1` (centres unmarked) [Example 5], for which the Emax came to 145% and the EC50 was in the range of 1 to 100 nM.
As to `CCOc1cc(C(=O)NS(=O)(=O)N2CCCCC2)cc2sc(N3C4CCC3CC(NCc3c(-c5c(Cl)cccc5Cl)noc3C3CC3)C4)nc12` (centres unmarked) [Example 400-16], the Emax was determined as 87.3% and the EC50 is below 1 nM.
Taken in the same sequence, the figures for `O=C(NS(=O)(=O)N1CCCCC1)c1cc2sc(N3C4CCC3CC(NCc3c(-c5c(Cl)cccc5Cl)noc3C3CC3)C4)nc2cc1F` (centres unmarked) [Example 400-24] were 88.2% and below 1 nM.
For the molecule `O=C(NS(=O)(=O)c1nccs1)c1ccc2nc(N3C4CCC3CC(NCc3c(-c5c(Cl)cccc5Cl)noc3C3CC3)C4)sc2c1` (centres unmarked) [Example 268], the Emax amounted to 129% and the EC50 lay in the range of 100 to 1000 nM.
Consider `COC(=O)c1cc2sc(N3C4CCC3CC(NCc3c(-c5c(Cl)cccc5Cl)noc3C3CC3)C4)nc2cc1-c1ccccc1` (centres unmarked) [Example 200-23], for which the Emax turned out to be 76.5% and the EC50 fell in the range of 1 to 100 nM.
For `CC(C)(C)c1ccc(S(=O)(=O)NC(=O)c2ccc3nc(N4C5CCC4CC(NCc4c(-c6c(Cl)cccc6Cl)noc4C4CC4)C5)sc3c2)cc1` (centres unmarked) [Example 284], the Emax came out at 54% and the EC50 is above 1000 nM.
As to `CC(C)Oc1cc(C(=O)O)cc2sc(N3C4CCC3CC(NCc3c(-c5ccccc5C(F)(F)F)noc3C3CC3)C4)nc12` (centres unmarked) [Example 1401], the Emax came out at 125% and the EC50 fell in the range of 100 to 1000 nM.
Taken in the same sequence, the figures for `O=C(NS(=O)(=O)C1CC1)c1cc(F)c2nc(N3C4CCC3CC(NCc3c(-c5c(Cl)cccc5Cl)noc3C3CC3)C4)sc2c1` (centres unmarked) [Example 298] were 155% and 1 to 100 nM.
Consider `O=C(O)c1ccc2nc(N3C4CCC3CC(NCc3c(-c5c(Cl)cccc5Cl)noc3C3CC3)C4)oc2c1` (centres unmarked) [Example 20], for which the Emax was 56% and the EC50 was in the range of 1 to 100 nM.
Take `CC(C)Oc1cc(C(=O)NS(=O)(=O)C2(C)CC2)cc2sc(N3CCC(NCc4c(-c5ccccc5OC(F)(F)F)noc4C4CC4)CC3)nc12` [Example 900-6]: the Emax came to 112% and the 50% effective concentration (EC50) was in the range of 1 to 100 nM.
As for `Cc1cc(C(=O)NS(=O)(=O)C2(C)CC2)cc2sc(N3C4CCC3CC(NCc3c(-c5ccccc5C(F)(F)F)noc3C3CC3)C4)nc12` (centres unmarked) [Example 1406], the Emax came to 133% and the EC50 was below 1 nM.
Turning to `COC(=O)c1cc(F)c2nc(N3CCC(NCc4c(-c5c(Cl)cccc5Cl)noc4C4CC4)CC3)sc2c1` [Example 200-5], the Emax is 72% and the EC50 lay within 100 to 1000 nM.
`O=C(NS(=O)(=O)N1CCCC1)c1cc(F)c2nc(N3C4CCC3CC(NCc3c(-c5c(Cl)cccc5Cl)noc3C3CC3)C4)sc2c1` (centres unmarked) [Example 400-1]: the Emax was found to be 210% and the EC50 lay within 1 to 100 nM.
For `COC(=O)c1ccc2cc(N3[C@@H]4CC[C@H]3C[C@@H](NCc3c(-c5c(Cl)cccc5Cl)noc3C3CC3)C4)ccc2c1` [Example 49, methyl 6-((1R,3R,5S)-3-(((5-cyclopropyl-3-(2,6-dichlorophenyl)isoxazol-4-yl)methyl)amino)-8-azabicyclo[3.2.1]octan-8-yl)-2-naphthoate], the Emax worked out at 135% and the EC50 was in the range of 1 to 100 nM.
As to `O=C(O)c1ccc2nc(N3[C@@H]4CC[C@H]3C[C@H](NCc3c(-c5c(Cl)cccc5Cl)noc3C3CC3)C4)sc2c1` [Example 178], the Emax amounted to 108% and the EC50 was above 1000 nM.
In the same order, the values of `CC(C)S(=O)(=O)NC(=O)c1ccc2nc(N3C4CCC3CC(NCc3c(-c5c(Cl)cccc5Cl)noc3C3CC3)C4)sc2c1` (centres unmarked) [Example 237] are 226% and 1 to 100 nM.
Regarding `CC(C)Oc1cc(C(=O)NS(=O)(=O)C2CC2)cc2sc(N3C4CCC3CC(NCc3c(-c5ccccc5C(F)(F)F)noc3C3CC3)C4)nc12` (centres unmarked) [Example 1415], the Emax came to 106% and the EC50 is 1 to 100 nM.
Taken in the same sequence, the figures for `CN(C)S(=O)(=O)NC(=O)c1ccc2nc(N3C4CCC3CC(NCc3c(-c5c(Cl)cccc5Cl)noc3C3CC3)C4)sc2c1` (single isomer, unassigned) [Example 225] were 126% and below 1 nM.
In the same order, the values of `Cc1cc2nc(N3C4CCC3CC(NCc3c(-c5c(Cl)cccc5Cl)noc3C3CC3)C4)sc2cc1C(=O)NS(=O)(=O)C1(C)CC1` (centres unmarked) [Example 400-11] are 79.3% and below 1 nM.
In the same order, the values of `O=C(NS(=O)(=O)C1CC1)c1ccc(N2C3CCC2CC(NCc2c(-c4c(Cl)cccc4Cl)noc2C2CC2)C3)nc1` (centres unmarked) [Example 400-37] are 82.5% and 1 to 100 nM.
